Source: patent US20230414826A1, “FIBRIN HYDROGELS” (Mayo Foundation for Medical Education and Research, priority 2020, published 2023)

Target: T1, fibrin gels (40 mg/mL fibrinogen, 33 U/mL thrombin) (Homo sapiens, UniProt P02671+P02675+P02679)
T1 construct: purchased Ethicon (Evicel)
T1 sequence (P02671 20-644 isoform P02671-2 limits assumed): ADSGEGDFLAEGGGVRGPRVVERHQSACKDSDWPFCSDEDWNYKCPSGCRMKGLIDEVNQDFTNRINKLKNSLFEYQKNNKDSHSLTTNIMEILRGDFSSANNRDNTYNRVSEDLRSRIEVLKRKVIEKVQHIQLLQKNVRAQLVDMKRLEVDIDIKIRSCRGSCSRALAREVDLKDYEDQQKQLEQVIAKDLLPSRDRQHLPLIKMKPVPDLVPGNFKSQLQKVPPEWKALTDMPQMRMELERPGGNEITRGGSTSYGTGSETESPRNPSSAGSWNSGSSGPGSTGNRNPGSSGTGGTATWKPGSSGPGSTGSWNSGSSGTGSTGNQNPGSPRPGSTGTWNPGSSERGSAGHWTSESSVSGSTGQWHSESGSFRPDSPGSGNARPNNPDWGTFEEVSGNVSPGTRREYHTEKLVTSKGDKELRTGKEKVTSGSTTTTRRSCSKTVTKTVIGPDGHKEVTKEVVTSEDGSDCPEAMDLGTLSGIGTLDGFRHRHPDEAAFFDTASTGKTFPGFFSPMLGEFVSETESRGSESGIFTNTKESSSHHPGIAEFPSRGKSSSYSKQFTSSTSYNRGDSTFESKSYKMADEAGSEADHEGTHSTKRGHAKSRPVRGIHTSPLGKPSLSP
T1 sequence (P02675 45-491 limits assumed): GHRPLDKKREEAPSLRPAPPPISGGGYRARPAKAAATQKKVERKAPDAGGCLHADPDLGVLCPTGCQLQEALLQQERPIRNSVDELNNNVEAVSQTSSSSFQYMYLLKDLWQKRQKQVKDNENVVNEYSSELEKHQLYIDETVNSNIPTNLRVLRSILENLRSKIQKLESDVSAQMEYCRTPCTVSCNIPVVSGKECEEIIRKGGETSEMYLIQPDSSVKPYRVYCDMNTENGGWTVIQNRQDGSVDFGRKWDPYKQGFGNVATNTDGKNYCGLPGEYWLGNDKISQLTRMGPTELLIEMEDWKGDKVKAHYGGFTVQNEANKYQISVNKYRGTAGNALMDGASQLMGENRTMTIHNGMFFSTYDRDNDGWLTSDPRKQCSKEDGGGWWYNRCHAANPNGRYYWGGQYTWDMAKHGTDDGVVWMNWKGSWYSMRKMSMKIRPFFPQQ
T1 sequence (P02679 27-437 isoform P02679-2 limits assumed): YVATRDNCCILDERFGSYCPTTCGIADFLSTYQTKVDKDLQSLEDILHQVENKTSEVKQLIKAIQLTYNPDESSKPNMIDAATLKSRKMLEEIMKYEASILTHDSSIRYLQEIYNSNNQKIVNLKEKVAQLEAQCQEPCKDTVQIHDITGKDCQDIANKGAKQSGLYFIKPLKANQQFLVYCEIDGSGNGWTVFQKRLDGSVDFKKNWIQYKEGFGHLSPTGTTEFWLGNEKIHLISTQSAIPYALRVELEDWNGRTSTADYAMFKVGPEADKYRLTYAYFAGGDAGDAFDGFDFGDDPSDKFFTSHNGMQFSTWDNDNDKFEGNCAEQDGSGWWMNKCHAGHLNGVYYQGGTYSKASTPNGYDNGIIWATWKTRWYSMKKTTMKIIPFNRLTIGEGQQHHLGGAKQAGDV
Assay: Biexponential modeling of shear modulus (g′) versus time data
Settings: biexponential model; for time shift parameter (xc): 0.12% dye, n=3; for G′1: fast rate associated parameter; for G′1 / r1 / G′2 / r2 / xc: avg ± sd, n = 3; for r1: fast rate constant; for G′2: slow rate associated parameter; for r2: slow rate constant; for xc: time shift parameter
Method: Modeling was performed using the shear modulus (g′) versus time data for each time sweep performed with gels with a final concentration of 40 mg/mL fibrinogen, 33 U/mL thrombin, and 0.12% dye. A biexponential model was used as described elsewhere (see, e.g., Wedgwood et al., Macromolecular Symposia, 334:117-25 (2013); and Moreno-Arotzena et al., Materials (Basel), 8:1636-51 (2015)). The following equation was used: […]
This equation model assumes a fast (1) and slow (2) kinetic rate. As such G′1 and G′2 are the respective rate associated parameters, r1 and r2 are the respective rates constants, and Xc is a time shift parameter. Modeling was performed using MATLAB (Mathworks; Natick, MA), using the model fit function. Parameters were defined with r1>r2 and xc as positive. Each sample run was best fitted to the model to generate an r^2>0.98.
Previous work has fitted fibrin gelation kinetics to a biexponential model (see, e.g., Moreno-Arotzena et al., Materials (Basel), 8:1636-51 (2015)). In this model, gelation, as measured by the shear modulus over time, consists of a fast and slow reaction rate. Each time sweep series was fitted to the biexponential model to determine the fast (1) and slow (2) associated parameters, reaction rates and time shift parameter (Table 2 and FIG. 9). The time shift parameters (xc) for the PBS, TB, EB, and PEG groups were 19.7±7.2, 62.9±9.7, 110.6±7.6, and 20.3±5.0 sec (n=3, p<0.001) (FIG. 9A). […] This re-affirms the shifted delay in gelation onset for TB and EB groups and confirms that the effect is not due to changes in molality. To understand if there is a change in reaction rates, the ratio of the fast to slow reaction rate was compared. The ratios, r1/r2, for PBS, TB, EB and PEG groups were […] (n=3, p=0.057) (FIG. 9B).

Row | SMILES | time shift parameter (xc) [s] | G′1 | r1 | G′2 | r2 | xc
1 | Cc1cc(-c2ccc(/N=N/c3ccc4c(S(=O)(=O)O)cc(S(=O)(=O)O)c(N)c4c3O)c(C)c2)ccc1/N=N/c1ccc2c(S(=O)(=O)O)cc(S(=O)(=O)O)c(N)c2c1O [EB, Evans Blue] | 110.6 ± 7.6 | 927 ± 395 | 3720 ± 732 | 787 ± 210 | 739 ± 205 | 111 ± 8
2 | Cc1cc(-c2ccc(/N=N/c3c(S(=O)(=O)O)cc4cc(S(=O)(=O)O)cc(N)c4c3O)c(C)c2)ccc1/N=N/c1c(S(=O)(=O)O)cc2cc(S(=O)(=O)O)cc(N)c2c1O [TB, Trypan Blue] | 62.9 ± 9.7 | 1555 ± 92 | 2679 ± 366 | 800 ± 186 | 455 ± 131 | 63 ± 10
